Assay results from patent US20250009709A1, “PRENYLATED CHALCONE AND FLAVONOID COMPOSITIONS FOR USE IN TREATING CANCER” (INNOX CORP., priority 2021, published 2025).

System: pCrkl
Experiment: pCrkl level in K562-IS cells
Format: cell-based
Conditions: 1000 nM imatinib, data not shown
Procedure: The effect of the drug substance on chronic myelogenous leukemic (CML) cells was tested using a K562 cell line model.

Cc1ccc(NC(=O)c2ccc(CN3CCN(C)CC3)cc2)cc1Nc1nccc(-c2cccnc2)n1 [imatinib]
pCrkl level in comparison with non-treated controls: did not significantly change
